From BindingDB's records for doi:10.1021/jm00006a025 (Chungnam National University, 1995) come the findings set out here.

Usually IC50 stands for the concentration that gives 50% inhibition. Low readings indicate higher potency, high ones lower potency.

The target in this assay is T1, DNA topoisomerase 1 (Homo sapiens, UniProt P11387).
T1 sequence (P11387 whole entry): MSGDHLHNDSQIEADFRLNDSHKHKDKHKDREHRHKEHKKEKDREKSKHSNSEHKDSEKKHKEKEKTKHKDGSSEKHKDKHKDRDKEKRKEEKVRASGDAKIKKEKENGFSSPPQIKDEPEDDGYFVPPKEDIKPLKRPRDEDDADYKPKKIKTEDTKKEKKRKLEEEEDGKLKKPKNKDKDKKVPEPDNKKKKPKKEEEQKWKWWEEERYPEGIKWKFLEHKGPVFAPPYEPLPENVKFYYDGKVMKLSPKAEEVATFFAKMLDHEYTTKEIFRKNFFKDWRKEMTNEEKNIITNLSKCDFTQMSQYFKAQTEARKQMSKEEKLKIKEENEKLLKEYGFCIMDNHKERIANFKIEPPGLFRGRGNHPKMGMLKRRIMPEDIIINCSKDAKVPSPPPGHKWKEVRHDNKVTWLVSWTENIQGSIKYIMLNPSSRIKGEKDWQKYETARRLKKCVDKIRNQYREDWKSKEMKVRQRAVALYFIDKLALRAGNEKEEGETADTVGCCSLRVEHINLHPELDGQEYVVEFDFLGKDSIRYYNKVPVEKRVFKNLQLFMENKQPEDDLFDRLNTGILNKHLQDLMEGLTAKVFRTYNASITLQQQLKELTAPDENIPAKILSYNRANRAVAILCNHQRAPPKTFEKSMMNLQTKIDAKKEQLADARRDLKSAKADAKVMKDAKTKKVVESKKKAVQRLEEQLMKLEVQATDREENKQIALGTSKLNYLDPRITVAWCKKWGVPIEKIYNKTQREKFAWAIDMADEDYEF
The experiment in a line: Inhibitory activity against DNA topoisomerase-1 obtained from Hela cells.
Molecule `CC(C)=CC=C(OC(=O)C(c1ccccc1)c1ccccc1)c1cc(O)c2c(O)ccc(O)c2c1O` came in with an IC50 above 625 µM.
The value for `CC(C)=CC=C(OC(=O)C=C(C)C=CC=C(C)/C=C/C1=C(C)CCCC1(C)C)c1cc(O)c2c(O)ccc(O)c2c1O` [(2Z,4E,6E,8E)-3,7-Dimethyl-9-(2,6,6-trimethyl-cyclohex-1-enyl)-nona-2,4,6,8-tetraenoic acid (R)-1-(5,8-dihydroxy-1,4-dioxo-1,4-dihydro-naphthalen-2-yl)-4-methyl-pent-3-enyl ester] was above 625 µM; that for `CCCCC/C=C/C/C=C/C/C=C/CCCCC(=O)OC(=CC=C(C)C)c1cc(O)c2c(O)ccc(O)c2c1O` [(6E,9E,12E)-Octadeca-6,9,12-trienoic acid (R)-1-(5,8-dihydroxy-1,4-dioxo-1,4-dihydro-naphthalen-2-yl)-4-methyl-pent-3-enyl ester] was above 625 µM; that for `CCCCC/C=C/C/C=C/CCCCCCCC(=O)OC(=CC=C(C)C)c1cc(O)c2c(O)ccc(O)c2c1O` [(9E,12E)-Octadeca-9,12-dienoic acid (R)-1-(5,8-dihydroxy-1,4-dioxo-1,4-dihydro-naphthalen-2-yl)-4-methyl-pent-3-enyl ester] was above 625 µM.
For `CCC/C=C/C(=O)OC(=CC=C(C)C)c1cc(O)c2c(O)ccc(O)c2c1O` [(E)-Hex-2-enoic acid (R)-1-(5,8-dihydroxy-1,4-dioxo-1,4-dihydro-naphthalen-2-yl)-4-methyl-pent-3-enyl ester] the value was 153 µM; for `CC/C=C/CC(=O)OC(=CC=C(C)C)c1cc(O)c2c(O)ccc(O)c2c1O` [(E)-Hex-3-enoic acid (R)-1-(5,8-dihydroxy-1,4-dioxo-1,4-dihydro-naphthalen-2-yl)-4-methyl-pent-3-enyl ester], 153 µM; for `CCCCCCCC/C=C/CCCCCCCC(=O)OC(=CC=C(C)C)c1cc(O)c2c(O)ccc(O)c2c1O` [(E)-Octadec-9-enoic acid (R)-1-(5,8-dihydroxy-1,4-dioxo-1,4-dihydro-naphthalen-2-yl)-4-methyl-pent-3-enyl ester], above 625 µM.
For `CC(C)=CC=C(OC(=O)c1ccccc1)c1cc(O)c2c(O)ccc(O)c2c1O` [(R)-1-(5,8-dihydroxy-1,4-dioxo-1,4-dihydronaphthalen-2-yl)-4-methylpent-3-enyl benzoate] the value was 153 µM; for `CCCCCCCCCC(=O)OC(=CC=C(C)C)c1cc(O)c2c(O)ccc(O)c2c1O` [Decanoic acid (R)-1-(5,8-dihydroxy-1,4-dioxo-1,4-dihydro-naphthalen-2-yl)-4-methyl-pent-3-enyl ester], above 625 µM; for `CCCCCCCCCCCC(=O)OC(=CC=C(C)C)c1cc(O)c2c(O)ccc(O)c2c1O` [Dodecanoic acid (R)-1-(5,8-dihydroxy-1,4-dioxo-1,4-dihydro-naphthalen-2-yl)-4-methyl-pent-3-enyl ester], above 625 µM.
The molecule `CCCCCCCCCCCCCCCC(=O)OC(=CC=C(C)C)c1cc(O)c2c(O)ccc(O)c2c1O` [Hexadecanoic acid (R)-1-(5,8-dihydroxy-1,4-dioxo-1,4-dihydro-naphthalen-2-yl)-4-methyl-pent-3-enyl ester] came in with a half-inhibitory concentration (IC50) above 625 µM.
For `CCCCCCCCC(=O)OC(=CC=C(C)C)c1cc(O)c2c(O)ccc(O)c2c1O` [Nonanoic acid (R)-1-(5,8-dihydroxy-1,4-dioxo-1,4-dihydro-naphthalen-2-yl)-4-methyl-pent-3-enyl ester] the value was above 625 µM.
As for `CCCCCCCCCCCCCCCCCC(=O)OC(=CC=C(C)C)c1cc(O)c2c(O)ccc(O)c2c1O` [Octadecanoic acid (R)-1-(5,8-dihydroxy-1,4-dioxo-1,4-dihydro-naphthalen-2-yl)-4-methyl-pent-3-enyl ester], the IC50 is above 625 µM.
For the molecule `CCCCCCCC(=O)OC(=CC=C(C)C)c1cc(O)c2c(O)ccc(O)c2c1O` [Octanoic acid (R)-1-(5,8-dihydroxy-1,4-dioxo-1,4-dihydro-naphthalen-2-yl)-4-methyl-pent-3-enyl ester], the IC50 is above 625 µM.
